In publication PMC10607100, “Anticancer and Antiphytopathogenic Activity of Fluorinated Isatins and Their Water-Soluble Hydrazone Derivatives” (International Journal of Molecular Sciences, 2023):
Read-outs that look alike come from different tables or passages of the source.

Assays:
[1] = tested on: Pectobacterium carotovorum subsp. carotovorum MI; assay: Agar-well diffusion, bactericidal activity; format: cell-based; conditions: Pectobacterium carotovorum, 2 mM/L
Summary of the method: (§1)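 Bacteria spread on agar (BP medium; GYCa for X. campestris; pH 7.2–7.4) with 6-mm wells, each receiving 150 μL compound solution. Cultures grown at 28 °C; growth-inhibition zone width measured after 36–40 h.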

[2] = tested on: Pectobacterium atrosepticum 1043; assay: Agar-well diffusion, bactericidal activity; format: cell-based; conditions: Pectobacterium atrosepticum, 1043, 2 mM/L
Summary of the method: as §1

[3] = tested on: Pseudomonas fluorescens EL-2.1; assay: Agar-well diffusion, bactericidal activity; format: cell-based; conditions: Pseudomonas fluorescens, EL2.1, 2 mM/L
Summary of the method: as §1

Micrococcus luteus B-109 = assay: Agar-well diffusion, bactericidal activity; format: cell-based; conditions: Micrococcus luteus
Summary of the method: as §1

[4] = tested on: Xanthomonas campestris B-610; assay: Agar-well diffusion, bactericidal activity; format: cell-based; conditions: Xanthomonas campestris
Summary of the method: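 Agar-well diffusion on GYCa agar (pH 7.2–7.4) seeded with bacterial suspension; 150 μL compound solution placed in 6-mm wells. Inhibition zone width measured after 36–40 h incubation.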

[5] = tested on: Phytophthora cactorum VKM F-985; assay: Mycelial radial growth inhibition; format: cell-based; conditions: for inhibition of growth at 2 µM: 2 nmol/mL; for inhibition of growth at 2 µM / inhibition of growth at 3 µM / inhibition of growth / inhibition of growth at 40 µM / inhibition of growth at 50 µM: read-out: Inhibition value, I (%); for inhibition of growth at 3 µM: 3 nmol/mL; for inhibition of growth: 27 nmol/mL; for inhibition of growth at 40 µM: 40 nmol/mL; for inhibition of growth at 50 µM: 50 nmol/mL
Summary of the method: (§2)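 Compounds mixed into molten GPY agar at various concentrations; centre inoculated with a 5-mm mycelial plug from 10-day cultures and incubated at 27 °C. Colony diameter compared with untreated control until control plate was covered (usually 12 days); ≥4 replicates in two experiments.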

[6] = tested on: Fusarium oxysporum IBPPM 543; assay: Mycelial radial growth inhibition; format: cell-based; conditions: Fusarium oxysporum; for inhibition of growth at 1 µM: 1 nmol/mL; for inhibition of growth at 1 µM / inhibition of growth at 5 µM / inhibition of growth at 20 µM / inhibition of growth at 40 µM: read-out: Inhibition value, I (%); for inhibition of growth at 5 µM: 5 nmol/mL; for inhibition of growth at 20 µM: 20 nmol/mL; for inhibition of growth at 40 µM: 40 nmol/mL
Summary of the method: as §2

[7] = tested on: five representative phytopathogens; assay: Agar-well diffusion, bactericidal activity over the panel of phytopathogens; format: cell-based
Summary of the method: as §1

[8] = Table S3, read-out: Inhibition zone width (mm), not less
[9] = Phytophthora cactorum, 72 h, age of the fungus 3 days
[10] = Phytophthora cactorum, 120 h, age of the fungus 5 days
[11] = Phytophthora cactorum, 168 h, age of the fungus 7 days
[12] = Phytophthora cactorum, 216 h, age of the fungus 9 days
[13] = IBPPM543, 72 h, age of the fungus 3 days
[14] = IBPPM543, 120 h, age of the fungus 5 days
[15] = IBPPM543, 168 h, age of the fungus 7 days
[16] = IBPPM543, 216 h, age of the fungus 9 days

For `O=C(C[n+]1ccccc1)NN=C1C(=O)N(Cc2ccccc2F)c2ccc(F)cc21.[Cl-]` [Compound 5a, 1-(2-(2-(5-Fluoro-1-(2-fluorobenzyl)-2-oxoindolin-3-ylidene)hydrazinyl)-2-oxoethyl)pyridin-1-ium chloride], the zone of inhibition at 2000 µM ([1]; average of 3 experiments, read-out: width of the inhibition zone (mm), P. carotovorum subsp. carotovorum) was 3 mm, the zone of inhibition at 2000 µM [1, 8] was ≥ 3 mm and the zone of inhibition at 2000 µM ([2]; average of 3 experiments, read-out: width of the inhibition zone (mm), P. atrosepticum) was 6 mm. The zone of inhibition at 2000 µM [2, 8] was ≥ 6 mm, the zone of inhibition at 2000 µM ([3]; average of 3 experiments, read-out: width of the inhibition zone (mm), Ps. fluorescens) was 4 mm and the zone of inhibition at 2000 µM [3, 8] was ≥ 4 mm. For the same compound, the zone of inhibition at 2000 µM (Micrococcus luteus B-109; B109, 2 mM/L, average of 3 experiments, read-out: width of the inhibition zone (mm), M. luteus) was 4 mm, the zone of inhibition at 2000 µM (Micrococcus luteus B-109; B109, Table S3, 2 mM/L, read-out: Inhibition zone width (mm), not less) was ≥ 4 mm and the zone of inhibition at 2000 µM ([4]; B610, 2 mM/L, average of 3 experiments, read-out: width of the inhibition zone (mm), X. campestris) was 3.5 mm. For the same compound, the zone of inhibition at 2000 µM ([4]; B610, Table S3, 2 mM/L, read-out: Inhibition zone width (mm), not less) was ≥ 3 mm, the “antagonistic effect superior to that of N-cetylpyridinium chloride” value ([5]; 5 days of growth) was 2.3 times and the “antagonistic effect superior to that of fludioxonil” value ([5]; 5 days of growth) was 2.0 times. For the same compound, the inhibition of growth at 2 µM [5, 9] was 26%, the inhibition of growth at 3 µM [5, 9] was 32% and the inhibition of growth [5, 9] was 40%. For the same compound, the inhibition of growth at 40 µM [5, 9] was 47%, the inhibition of growth at 50 µM [5, 9] was 52% and the EC50 ([5]; Phytophthora cactorum, 120 h, day 5, read-out: EC50, µg/mL at Day 5, P. cactorum) was 15 µg/mL. For the same compound, the inhibition of growth at 2 µM [5, 10] was 20%, the inhibition of growth at 3 µM [5, 10] was 32% and the inhibition of growth [5, 10] was 44%. It also gave an inhibition of growth at 40 µM [5, 10] of 53%, an inhibition of growth at 50 µM [5, 10] of 62% and an inhibition of growth at 2 µM [5, 11] of 15%. It also gave an inhibition of growth at 3 µM [5, 11] of 28%, an inhibition of growth [5, 11] of 31% and an inhibition of growth at 40 µM [5, 11] of 43%. The inhibition of growth at 50 µM [5, 11] was 45%, the inhibition of growth at 2 µM [5, 12] was 8% and the inhibition of growth at 3 µM [5, 12] was 19%. It also gave an inhibition of growth [5, 12] of 25%, an inhibition of growth at 40 µM [5, 12] of 36% and an inhibition of growth at 50 µM [5, 12] of 38%. The “EC50, µg/mL at Day 5, P. cactorum” value ([5]; day 5) was 15.12 µg/mL, the inhibition of growth at 1 µM [6, 13] was 34% and the inhibition of growth at 5 µM [6, 13] was 39%. It also gave an inhibition of growth at 20 µM [6, 13] of 41%, an inhibition of growth at 40 µM [6, 13] of 52% and an EC50 ([6]; IBPPM543, 120 h, day 5, read-out: EC50, µg/mL at Day 5, F. oxysporum) of 13.8 µg/mL. It also gave an inhibition of growth at 1 µM [6, 14] of 25%, an inhibition of growth at 5 µM [6, 14] of 31% and an inhibition of growth at 20 µM [6, 14] of 45%. The inhibition of growth at 40 µM [6, 14] was 54%, the inhibition of growth at 1 µM [6, 15] was 20% and the inhibition of growth at 5 µM [6, 15] was 23%. It also gave an inhibition of growth at 20 µM [6, 15] of 42%, an inhibition of growth at 40 µM [6, 15] of 51% and an inhibition of growth at 1 µM [6, 16] of 7%. The inhibition of growth at 5 µM [6, 16] was 18%, the inhibition of growth at 20 µM [6, 16] was 23% and the inhibition of growth at 40 µM [6, 16] was 36%. The zone of inhibition at 2000 µM ([7]; 36 h, 2 mM solutions, dependent on the test system used, read-out: inhibition zone width (mm), range over the test systems) was 3 to 6 mm, the “bactericidal activity” value ([7]; Table S2) was “moderate bactericidal activity” and the melting point was 180 to 182 °C.
